# Assay results taken from US20260000657A1, “ANTI-ANGIOGENIC THERAPY AS TREATMENT FOR BENIGN UTERINE DISORDERS” (STICHTING AMSTERDAM UMC, priority 2022, published 2026).
# Tests used:
# CD-1 mice = assay: Validation of tamoxifen-induced mouse adenomyosis model
# [1] = test system: uterine adenomyosis in SHN mice; details: cited from earlier work
# [2] = test system: uterus of mice with tamoxifen-induced adenomyosis
# Description: Sunitinib is another angiogenesis inhibitor and a highly-fluorescent molecule, therefore it will be used as a model drug to microscopically assess uptake and distribution in uterine tissue after termination.
# Intra-uterine delivery of a gel containing slow-release Sunitinib in low dose will also be tested as an alternative treatment for oral Axinitib in mice with tamoxifen-induced adenomyosis.
# [3] = test system: angiogenesis-related genes (VEGF-R1, VEGF-R2, VEGF-R3, VEGF-A, VEGF-B, CD31) in mouse uteri; assay: Real-time quantitative PCR uterine gene expression profile after axitinib; assay type: in vivo, mice; details: RT-PCR
# Description: To study the efficacy of axitinib treatment at the molecular level, the expression levels of vascular marker CD31 and angiogenic growth factors VEGF-A, VEGF-B, VEGF receptor R1 (VEGF-R1), VEGF-R2, VEGF-R3, placental growth factor PlGF, and collagen were measured. Real-time quantitative PCR was performed in a random selection of uterine specimens exposed to axitinib (dose II, n=7; dose I, n=6) or placebo (CMC, n=7). The expression of each gene was normalized to the household gene cyclophilin A.
# [4] = test system: tamoxifen-induced adenomyosis in a murine model; assay: Adenomyosis severity index (grade x affected surface area) in tamoxifen-induced adenomyosis murine model; assay type: in vivo, mice; details: dose II 3 mg/kg, post hoc p<0.05
# Description: The adenomyosis severity index in tamoxifen-induced adenomyosis in a murine model has been determined based on the abovementioned results of grade of adenomyosis and adenomyosis-affected surface area. Specifically, the grade of adenomyosis (determined on H&E slides as described above) was multiplied by the adenomyosis-affected surface area (determined on vimentin-stained slides). The adenomyosis severity index is the average of all sections analyzed per uterine horn. The adenomyosis severity index was determined for placebo group (CMC-treated mice) and two axitinib-treated groups (dose II—AX3: axitinib 3 mg/kg; dose I—AX25: axitinib 25 mg/kg).
# [5] = test system: tamoxifen-induced adenomyosis in CD-1 mice; assay: Oral axitinib treatment in tamoxifen-induced adenomyosis mouse model; assay type: in vivo
# Description: After validation of the model, this model was used to test treatment with anti-vascular endothelial growth factor receptor 2 (VEGFR-2) tyrosine kinase inhibitor axitinib (A-1107; LC Laboratories). To induce adenomyosis, 108 mice received neonatal tamoxifen treatment and were randomly allocated to receive treatment or placebo. On day 42, anti-angiogenesis treatment commenced by oral axitinib treatment or placebo. Axitinib was dissolved in 0.5% sodium carboxymethylcellulose (CMC) at a dose of 25 mg/kg body weight (dose I) or at a dose of 3 mg/kg (dose II). All animals received treatment by daily oral gavage at 5 μl/g bodyweight with axitinib (dose I/II) or placebo (CMC) for a time period of three weeks. During this period, all animals had daily animal welfare observations, and were weighed at a minimum of three times per week. The experimental groups are depicted in FIG. 1.
# The uteri were cut in half, one horn (right/left horn randomized) was fixed in 4% formaldehyde at room temperature for 48 hours.
# Uterine tissue was embedded in paraffin and sliced into transverse oriented sections of 5 μm, with three sections of one uterine horn on one microscope slide. […] Paraffin-embedded sections were dewaxed in xylene, rehydrated in 100%, 96%, and 70% ethanol, and washed in PBS (pH 7.4). […] After washing in PBS, aspecific binding was blocked by 3% BSA/PBS for one hour. After adding primary antibodies diluted in 0.5% BSA/PBS, sections were incubated overnight at 4° C. […] After washing with PBS, horseradish peroxidase (HRP)—streptavidin (strep) was added (cat. no. ab6734; 1:200; Dako Cytomation) diluted in 0.5% BSA/PBS, for thirty minutes. The sections were then washed in PBS, afterwards 3,3′-Diaminobenzidine (DAB) was added (60 μl DAB; 1 μl 30% H2O2; 1 mL PBS), for eight minutes.
# [6] = test system: tamoxifen-induced mice model; details: from week 16 of age; cited from earlier work
# [7] = test system: human adenomyosis lesions xenografted in mice; details: administered 14 days after xenografting; cited from earlier work
# [8] = tamoxifen 1 mg/kg oral day 2-5 after birth, six weeks, n = 6
# [9] = tamoxifen 1 mg/kg, six weeks, n = 6
# [10] = dose I 25 mg/kg daily oral gavage three weeks
# [11] = dose I 25 mg/kg daily oral gavage three weeks, N = 34
# [12] = dose II 3 mg/kg daily oral gavage three weeks
# [13] = dose II 3 mg/kg daily oral gavage three weeks, N = 34
compound,measurement,setting,value
"CC/C(=C(\c1ccccc1)c1ccc(OCCN(C)C)cc1)c1ccccc1 [Tamoxifen, tamoxifen]",Fibrosis surrounding the adenomyosis affected areas,"CD-1 mice; H&E and PTAH staining, tamoxifen-treated group",No signs of fibrosis
same,"Weight, Median","CD-1 mice; tamoxifen 1 mg/kg oral day 2-5 after birth, sacrificed after six weeks, n = 6",25.2
same,Adenomyosis No (% of mice),CD-1 mice; [8],(0%)
same,Adenomyosis No (number of mice),CD-1 mice; [8],0
same,Adenomyosis Yes (% of mice),CD-1 mice; [8],(100%)
same,Adenomyosis Yes (number of mice),CD-1 mice; [8],6
same,Adenomyosis Yes (% of mice),"CD-1 mice; tamoxifen 1 mg/kg oral day 2-5 after birth, six weeks, n = 6, listed as tamoxifen",100%
same,"Ectopic glands, median",CD-1 mice; [9],7.5
same,Grade 0 (% of mice),CD-1 mice; [9],(0%)
same,Grade 0 (number of mice),CD-1 mice; [9],0
same,Grade 1 (% of mice),CD-1 mice; [9],(0%)
same,Grade 1 (number of mice),CD-1 mice; [9],0
same,Grade 2 (% of mice),CD-1 mice; [9],(100%)
same,Grade 2 (number of mice),CD-1 mice; [9],6
same,Grade 3 (% of mice),CD-1 mice; [9],(0%)
same,Grade 3 (number of mice),CD-1 mice; [9],0
same,Grade of adenomyosis developed by all mice,CD-1 mice; [9],grade 2
same,"Microvessel density, median, Ectopic endometrium",CD-1 mice; [9],4.8
same,"Microvessel density, median, Endometrium",CD-1 mice; [9],5.9
same,"Microvessel density, median, Myometrium",CD-1 mice; [9],3.0
same,Ratio thickest myometrium/thickest uterine wall (α-SMA),CD-1 mice; [9],0.43
same,Ratio thinnest myometrium/thickest myometrium (α-SMA),CD-1 mice; [9],0.19
same,Ratio thinnest myometrium/thinnest uterine wall (α-SMA),CD-1 mice; [9],0.18
same,Spread Diffuse (% of mice),CD-1 mice; [9],(66.7%)
same,Spread Diffuse (number of mice),CD-1 mice; [9],4
same,Spread Focal (% of mice),CD-1 mice; [9],(33.3%)
same,Spread Focal (number of mice),CD-1 mice; [9],2
CO[C@@H]1[C@H](OC(=O)NC(=O)CCl)CC[C@]2(CO2)[C@H]1[C@@]1(C)O[C@@H]1CC=C(C)C [TNP-470],Development of signs of uterine adenomyosis,[1]; treatment from one day after pituitary grafting until week 13,did not develop signs of uterine adenomyosis
same,"Mean surface area of blood vessels in the endometrium, relative to control group",[1]; treatment until week 13,60.5%
CCN(CC)CCNC(=O)c1c(C)[nH]c(/C=C2\C(=O)Nc3ccc(F)cc32)c1C [Sunitinib],Uptake in uterine tissue after intra-uterine injection,"[2]; 1% and 0.1% of systemic dose, 4 h and 24 h after injection",uptake throughout the myometrium
same,Toxic effects when delivered locally,"[2]; mouse, in vivo",without any toxic effects
"CNC(=O)c1ccccc1Sc1ccc2c(/C=C/c3ccccn3)n[nH]c2c1 [Axitinib, axitinib]","Down-regulation of all VEGF receptors (1-3), as well as VEGF-A and VEGF","[3]; dose I axitinib, p<0.05",more than 60%
same,Decrease of expression of endothelial cell marker CD31,"[3]; dose I axitinib, p=0.06",85%
same,Down-regulation of VEGF-R1 expression,"[3]; dose II axitinib, p=0.003",63%
same,Decrease of expression of endothelial cell marker CD31,"[3]; dose II axitinib, p=0.04",85%
same,Reduction of adenomyosis severity index compared to placebo-treated mice,[4],48%
same,No signs of adenomyosis (% of mice),[5]; [10],"11,8%"
same,Presented with adenomyosis (% of mice),[5]; [10],"88,2%"
same,Adenomyosis No (number of mice),[5]; [11],4
same,Adenomyosis Yes (number of mice),[5]; [11],30
same,"Weight end treatment, Mean",[5]; [11],29.9 g
same,"Ectopic glands, median","[5]; dose I 25 mg/kg, N = 34",3.0
same,Grade 0 (% of mice),"[5]; dose I 25 mg/kg, N = 34",(14.7%)
same,Grade 0 (number of mice),"[5]; dose I 25 mg/kg, N = 34",5
same,Grade 1 (% of mice),"[5]; dose I 25 mg/kg, N = 34",(29.4%)
same,Grade 1 (number of mice),"[5]; dose I 25 mg/kg, N = 34",10
same,Grade 2 (% of mice),"[5]; dose I 25 mg/kg, N = 34",(50.0%)
same,Grade 2 (number of mice),"[5]; dose I 25 mg/kg, N = 34",17
same,Grade 3 (% of mice),"[5]; dose I 25 mg/kg, N = 34",(5.9%)
same,Grade 3 (number of mice),"[5]; dose I 25 mg/kg, N = 34",2
same,"Ratio thickest myometrium/transverse uterine diameter, median","[5]; dose I 25 mg/kg, N = 34",0.18
same,"Ratio thickest myometrium/uterine wall, median","[5]; dose I 25 mg/kg, N = 34",0.49
same,"Ratio thinnest myometrium/uterine wall, median","[5]; dose I 25 mg/kg, N = 34",0.21
same,"Ratio thinnest/thickest myometrium, median","[5]; dose I 25 mg/kg, N = 34",0.26
same,Spread Diffuse (number of mice),"[5]; dose I 25 mg/kg, N = 34",18
same,Spread Focal (number of mice),"[5]; dose I 25 mg/kg, N = 34",8
same,Spread None (% of mice),"[5]; dose I 25 mg/kg, N = 34",(14.7%)
same,Spread None (number of mice),"[5]; dose I 25 mg/kg, N = 34",5
same,Adenomyosis No (% of mice),"[5]; dose I + II pooled, N = 68",(14.9%)
same,Adenomyosis No (number of mice),"[5]; dose I + II pooled, N = 68",10
same,Adenomyosis Yes (% of mice),"[5]; dose I + II pooled, N = 68",(85.1%)
same,Adenomyosis Yes (number of mice),"[5]; dose I + II pooled, N = 68",57
same,"Ectopic areas, Median","[5]; dose I + II pooled, N = 68",1.3
same,"Ectopic glands, median","[5]; dose I + II pooled, N = 68",2.8
same,Grade 0/1 (% of mice),"[5]; dose I + II pooled, N = 68",(40.3%)
same,Grade 0/1 (number of mice),"[5]; dose I + II pooled, N = 68",27
same,Grade 2/3 (% of mice),"[5]; dose I + II pooled, N = 68",(59.7%)
same,Grade 2/3 (number of mice),"[5]; dose I + II pooled, N = 68",40
same,Spread Diffuse (% of mice),"[5]; dose I + II pooled, N = 68",(54.0%)
same,Spread Diffuse (number of mice),"[5]; dose I + II pooled, N = 68",34
same,Spread Focal (% of mice),"[5]; dose I + II pooled, N = 68",(30.2%)
same,Spread Focal (number of mice),"[5]; dose I + II pooled, N = 68",19
same,Spread None (% of mice),"[5]; dose I + II pooled, N = 68",(15.9%)
same,Spread None (number of mice),"[5]; dose I + II pooled, N = 68",10
same,"Weight end treatment, Mean","[5]; dose I + II pooled, N = 68",28.7 g
same,No signs of adenomyosis (% of mice),[5]; [12],"14,7%"
same,Presented with adenomyosis (% of mice),[5]; [12],"82,4%"
same,Adenomyosis No (number of mice),[5]; [13],5
same,Adenomyosis Yes (number of mice),[5]; [13],28
same,"Weight end treatment, Mean",[5]; [13],28.4 g
same,"Ectopic glands, median","[5]; dose II 3 mg/kg, N = 34",2.7
same,Grade 0 (% of mice),"[5]; dose II 3 mg/kg, N = 34",(15.2%)
same,Grade 0 (number of mice),"[5]; dose II 3 mg/kg, N = 34",5
same,Grade 1 (% of mice),"[5]; dose II 3 mg/kg, N = 34",(21.2%)
same,Grade 1 (number of mice),"[5]; dose II 3 mg/kg, N = 34",7
same,Grade 2 (% of mice),"[5]; dose II 3 mg/kg, N = 34",(57.6%)
same,Grade 2 (number of mice),"[5]; dose II 3 mg/kg, N = 34",19
same,Grade 3 (% of mice),"[5]; dose II 3 mg/kg, N = 34",(6.1%)
same,Grade 3 (number of mice),"[5]; dose II 3 mg/kg, N = 34",2
same,"Ratio thickest myometrium/transverse uterine diameter, median","[5]; dose II 3 mg/kg, N = 34",0.18
same,"Ratio thickest myometrium/uterine wall, median","[5]; dose II 3 mg/kg, N = 34",0.54
same,"Ratio thinnest myometrium/uterine wall, median","[5]; dose II 3 mg/kg, N = 34",0.19
same,"Ratio thinnest/thickest myometrium, median","[5]; dose II 3 mg/kg, N = 34",0.23
same,Spread Diffuse (number of mice),"[5]; dose II 3 mg/kg, N = 34",16.4
same,Spread Focal (number of mice),"[5]; dose II 3 mg/kg, N = 34",11
same,Spread None (% of mice),"[5]; dose II 3 mg/kg, N = 34",(15.2%)
same,Spread None (number of mice),"[5]; dose II 3 mg/kg, N = 34",5
same,"Odds ratio, incidence of grade 0/1 vs grade 2/3 adenomyosis, axitinib vs CMC-only","[5]; pooled dose I + II vs placebo, p=0,048",1.33
O=C(O)/C=C/c1ccc(Cn2ccnc2)cc1 [Ozagrel],Myometrial infiltration,[6],suppressed myometrial infiltration
bevacizumab,MVD and the expression of VEGF,[7],decreased
